Source: ChEMBL document CHEMBL4402526, “Design and Synthesis of Fungal-Selective Resorcylate Aminopyrazole Hsp90 Inhibitors” (J Med Chem, 2020)
The source made the active and inactive calls. How the calls were made is not given here.

Experiments:
Candida albicans = test: Antifungal activity against Candida albicans clinical isolate 2 assessed as fungal growth inhibition at <= […] uM measured after 48 hrs by resazurin assay; format: functional, organism-based
Cryptococcus neoformans = test: Antifungal activity against Cryptococcus neoformans H99 assessed as fungal growth inhibition at <= […] uM measured after 48 hrs by resazurin assay; format: functional, organism-based

Cn1nc(-c2cccc(C(F)(F)F)c2)cc1Nc1cc(O)cc(O)c1C(=O)N1Cc2cn[nH]c2C1
Activity (Candida albicans): Active
Activity (Cryptococcus neoformans): Active

O=C(c1c(O)cc(O)cc1Nc1ccnn1Cc1ccc(C(F)(F)F)cc1)N1Cc2cn[nH]c2C1
Activity (Candida albicans): Active
Activity (Cryptococcus neoformans): Active

COc1ccc(Cn2ncc(-c3ccccc3)c2Nc2cc(O)cc(O)c2C(=O)N2Cc3ccccc3C2)cc1
Activity (Candida albicans): Active
Activity (Cryptococcus neoformans): Active

Cn1nc(-c2ccc(C(F)(F)F)cc2)cc1Nc1cc(O)cc(O)c1C(=O)N1Cc2cn[nH]c2C1
Activity (Candida albicans): Active
Activity (Cryptococcus neoformans): Active

Cn1nc(-c2ccccc2)cc1Nc1cc(O)cc(O)c1C(=O)N1Cc2ccccc2C1
Activity (Candida albicans): Active
Activity (Cryptococcus neoformans): Active

O=C(c1c(O)cc(O)cc1Nc1ccnn1C1CCCCC1)N1Cc2cn[nH]c2C1
Activity (Candida albicans): Active
Activity (Cryptococcus neoformans): Active

CC(C)c1cc(Nc2cc(O)cc(O)c2C(=O)N2Cc3ccccc3C2)n(C)n1
Activity (Candida albicans): Active
Activity (Cryptococcus neoformans): Active

O=C(c1c(O)cc(O)cc1Nc1ccnn1Cc1ccc(C(F)(F)F)cc1)N1Cc2cccnc2C1
Activity (Candida albicans): Active
Activity (Cryptococcus neoformans): Active

CC(C)c1cc(Nc2cc(O)cc(O)c2C(=O)N2Cc3cccnc3C2)n(C)n1
Activity (Candida albicans): Active
Activity (Cryptococcus neoformans): Active

O=C(c1c(O)cc(O)cc1Nc1cc(-c2ccccc2)nn1C1CCCCC1)N1Cc2cccnc2C1
Activity (Candida albicans): Active
Activity (Cryptococcus neoformans): Active

O=C(c1c(O)cc(O)cc1Nc1ccnn1C1CCCCC1)N1Cc2cccnc2C1
Activity (Candida albicans): Active
Activity (Cryptococcus neoformans): Active

COc1ccc(-c2cc(Nc3cc(O)cc(O)c3C(=O)N3Cc4cccnc4C3)n(C)n2)cc1
Activity (Candida albicans): Active
Activity (Cryptococcus neoformans): Active

Cc1ccc(-c2cc(Nc3cc(O)cc(O)c3C(=O)N3Cc4cn[nH]c4C3)n(C)n2)cc1
Activity (Candida albicans): Active
Activity (Cryptococcus neoformans): Active

COc1ccc(Cn2nc(-c3ccccc3)cc2Nc2cc(O)cc(O)c2C(=O)N2Cc3cccc(F)c3C2)cc1
Activity (Candida albicans): Active
Activity (Cryptococcus neoformans): Active

COc1ccc(Cn2nc(C3CC3)cc2Nc2cc(O)cc(O)c2C(=O)N2Cc3cccnc3C2)cc1
Activity (Candida albicans): Active
Activity (Cryptococcus neoformans): Active

COc1ccc(Cn2nc(C3CC3)cc2Nc2cc(O)cc(O)c2C(=O)N2Cc3cn[nH]c3C2)cc1
Activity (Candida albicans): Active
Activity (Cryptococcus neoformans): Active

Cc1cccc(-c2cc(Nc3cc(O)cc(O)c3C(=O)N3Cc4cccnc4C3)n(C)n2)c1
Activity (Candida albicans): Active
Activity (Cryptococcus neoformans): Active

COc1ccc(Cn2nc(C)cc2Nc2cc(O)cc(O)c2C(=O)N2Cc3ccc(NC4CCN(C)CC4)cc3C2)cc1
Activity (Candida albicans): Active
Activity (Cryptococcus neoformans): Active

O=C(c1c(O)cc(O)cc1Nc1ccnn1Cc1cccnc1)N1Cc2cn[nH]c2C1
Activity (Candida albicans): Active
Activity (Cryptococcus neoformans): Active

CCc1cc(Nc2cc(O)cc(O)c2C(=O)N2Cc3cn[nH]c3C2)n(Cc2ccc(OC)cc2)n1
Activity (Candida albicans): Active
Activity (Cryptococcus neoformans): Active

COc1ccc(Cn2nc(C)cc2Nc2cc(O)cc(O)c2C(=O)N2Cc3cccnc3C2)cc1
Activity (Candida albicans): Active
Activity (Cryptococcus neoformans): Active

Cn1nccc1Nc1cc(O)cc(O)c1C(=O)N1Cc2cccnc2C1
Activity (Candida albicans): Active
Activity (Cryptococcus neoformans): Active

COc1ccc(Cn2nc(-c3ccccc3)cc2Nc2cc(O)cc(O)c2C(=O)N2Cc3ccc(NC4CCN(C)CC4)cc3C2)cc1
Activity (Candida albicans): Active
Activity (Cryptococcus neoformans): Active

COc1ccc(Cn2ncc(Cc3ccccc3)c2Nc2cc(O)cc(O)c2C(=O)N2Cc3ccccc3C2)cc1
Activity (Candida albicans): Active
Activity (Cryptococcus neoformans): Active

CC(C)Cn1nccc1Nc1cc(O)cc(O)c1C(=O)N1Cc2cccnc2C1
Activity (Candida albicans): Active
Activity (Cryptococcus neoformans): Active

COc1ccc(Cn2nccc2Nc2cc(O)cc(O)c2C(=O)N2Cc3ccccc3C2)cc1
Activity (Candida albicans): Active
Activity (Cryptococcus neoformans): Active

Cc1ccccc1-c1cc(Nc2cc(O)cc(O)c2C(=O)N2Cc3cn[nH]c3C2)n(C)n1
Activity (Candida albicans): Active
Activity (Cryptococcus neoformans): Active

COc1ccc(Cn2nc(C)cc2Nc2cc(O)cc(O)c2C(=O)N2Cc3ccc(N4CCN(C)CC4)cc3C2)cc1
Activity (Candida albicans): Active
Activity (Cryptococcus neoformans): Active

CC(C)Cn1nc(-c2ccccc2)cc1Nc1cc(O)cc(O)c1C(=O)N1Cc2cccnc2C1
Activity (Candida albicans): Active
Activity (Cryptococcus neoformans): Active

O=C(c1c(O)cc(O)cc1Nc1ccnn1-c1ccccc1)N1Cc2ccccc2C1
Activity (Candida albicans): Active
Activity (Cryptococcus neoformans): Active

Cc1ccc(Cn2nc(C)cc2Nc2cc(O)cc(O)c2C(=O)N2Cc3ccccc3C2)cc1
Activity (Candida albicans): Active
Activity (Cryptococcus neoformans): Active

O=C(c1c(O)cc(O)cc1Nc1ccnn1Cc1ccccc1)N1Cc2cccnc2C1
Activity (Candida albicans): Active
Activity (Cryptococcus neoformans): Active

CC(C)(C)n1nc(-c2ccccc2)cc1Nc1cc(O)cc(O)c1C(=O)N1Cc2cccnc2C1
Activity (Candida albicans): Active
Activity (Cryptococcus neoformans): Active

Cn1nc(-c2cccc(C(F)(F)F)c2)cc1Nc1cc(O)cc(O)c1C(=O)N1Cc2ccccc2C1
Activity (Candida albicans): Active
Activity (Cryptococcus neoformans): Active

CC(C)(C)n1nc(-c2ccccc2)cc1Nc1cc(O)cc(O)c1C(=O)N1Cc2cn[nH]c2C1
Activity (Candida albicans): Active
Activity (Cryptococcus neoformans): Active

CC(C)n1nccc1Nc1cc(O)cc(O)c1C(=O)N1Cc2cn[nH]c2C1
Activity (Candida albicans): Active
Activity (Cryptococcus neoformans): Active

CC(C)c1ccc(Cn2nccc2Nc2cc(O)cc(O)c2C(=O)N2Cc3cccnc3C2)cc1
Activity (Candida albicans): Active
Activity (Cryptococcus neoformans): Active

Cn1nccc1Nc1cc(O)cc(O)c1C(=O)N1Cc2ccccc2C1
Activity (Candida albicans): Active
Activity (Cryptococcus neoformans): Active

O=C(c1c(O)cc(O)cc1Nc1ccnn1Cc1ccco1)N1Cc2ccccc2C1
Activity (Candida albicans): Active
Activity (Cryptococcus neoformans): Active

Cc1cc(Nc2cc(O)cc(O)c2C(=O)N2Cc3ccccc3C2)n(Cc2ccccc2C)n1
Activity (Candida albicans): Active
Activity (Cryptococcus neoformans): Active

O=C(c1c(O)cc(O)cc1Nc1ccnn1CC1CCCCC1)N1Cc2ccccc2C1
Activity (Candida albicans): Active
Activity (Cryptococcus neoformans): Active

Cn1nc(-c2ccccc2)cc1Nc1cc(O)cc(O)c1C(=O)N1Cc2cccnc2C1
Activity (Candida albicans): Active
Activity (Cryptococcus neoformans): Active

O=C(c1c(O)cc(O)cc1Nc1cc(-c2ccccc2)nn1C1CCCCC1)N1Cc2cn[nH]c2C1
Activity (Candida albicans): Active
Activity (Cryptococcus neoformans): Active

Cn1nc(-c2ccccc2)cc1Nc1cc(O)cc(O)c1C(=O)N1Cc2cn[nH]c2C1
Activity (Candida albicans): Active
Activity (Cryptococcus neoformans): Active

CC(C)c1ccc(Cn2nccc2Nc2cc(O)cc(O)c2C(=O)N2Cc3cn[nH]c3C2)cc1
Activity (Candida albicans): Active
Activity (Cryptococcus neoformans): Active

O=C(c1c(O)cc(O)cc1Nc1ccnn1Cc1ccco1)N1Cc2cccnc2C1
Activity (Candida albicans): Active
Activity (Cryptococcus neoformans): Active

COc1ccc(Cn2nc(C3CCCC3)cc2Nc2cc(O)cc(O)c2C(=O)N2Cc3cn[nH]c3C2)cc1
Activity (Candida albicans): Active
Activity (Cryptococcus neoformans): Active

COc1ccc(Cn2nc(-c3ccccc3)cc2Nc2cc(O)cc(O)c2C(=O)N2CCCC2)cc1
Activity (Candida albicans): Active
Activity (Cryptococcus neoformans): Active

Cn1nc(-c2cccc(C(F)(F)F)c2)cc1Nc1cc(O)cc(O)c1C(=O)N1Cc2cccnc2C1
Activity (Candida albicans): Active
Activity (Cryptococcus neoformans): Active

COc1ccc(Cn2ncc(C(C)C)c2Nc2cc(O)cc(O)c2C(=O)N2Cc3ccccc3C2)cc1
Activity (Candida albicans): Active
Activity (Cryptococcus neoformans): Active

CC(C)c1cc(Nc2cc(O)cc(O)c2C(=O)N2Cc3cn[nH]c3C2)n(C)n1
Activity (Candida albicans): Active
Activity (Cryptococcus neoformans): Active

CC(C)n1nccc1Nc1cc(O)cc(O)c1C(=O)N1Cc2cccnc2C1
Activity (Candida albicans): Active
Activity (Cryptococcus neoformans): Active

COc1ccc(Cn2nc(C)cc2Nc2cc(O)cc(O)c2C(=O)N2Cc3cn[nH]c3C2)cc1
Activity (Candida albicans): Active
Activity (Cryptococcus neoformans): Active

Cn1nc(C2CCCCC2)cc1Nc1cc(O)cc(O)c1C(=O)N1Cc2cccnc2C1
Activity (Candida albicans): Active
Activity (Cryptococcus neoformans): Active

Cn1nccc1Nc1cc(O)cc(O)c1C(=O)N1Cc2cn[nH]c2C1
Activity (Candida albicans): Active
Activity (Cryptococcus neoformans): Active

COc1ccc(Cn2nc(C(C)(C)C)cc2Nc2cc(O)cc(O)c2C(=O)N2Cc3ccccc3C2)cc1
Activity (Candida albicans): Active
Activity (Cryptococcus neoformans): Active

COc1ccc(Cn2nc(-c3ccccc3)cc2Nc2cc(O)cc(O)c2C(=O)N2Cc3cn[nH]c3C2)cc1
Activity (Candida albicans): Active
Activity (Cryptococcus neoformans): Active

O=C(c1c(O)cc(O)cc1Nc1ccnn1-c1ccccc1)N1Cc2cccnc2C1
Activity (Candida albicans): Active
Activity (Cryptococcus neoformans): Active

O=C(c1c(O)cc(O)cc1Nc1ccnn1Cc1cccnc1)N1Cc2cccnc2C1
Activity (Candida albicans): Active
Activity (Cryptococcus neoformans): Active

CC(C)Cn1nc(-c2ccccc2)cc1Nc1cc(O)cc(O)c1C(=O)N1Cc2cn[nH]c2C1
Activity (Candida albicans): Active
Activity (Cryptococcus neoformans): Active

COc1ccc(-c2cc(Nc3cc(O)cc(O)c3C(=O)N3Cc4ccccc4C3)n(C)n2)cc1
Activity (Candida albicans): Active
Activity (Cryptococcus neoformans): Active

O=C(c1c(O)cc(O)cc1Nc1ccnn1Cc1ccccc1)N1Cc2ccccc2C1
Activity (Candida albicans): Active
Activity (Cryptococcus neoformans): Active

Cn1nc(-c2ccc(C(F)(F)F)cc2)cc1Nc1cc(O)cc(O)c1C(=O)N1Cc2ccccc2C1
Activity (Candida albicans): Active
Activity (Cryptococcus neoformans): Active

O=C(c1c(O)cc(O)cc1Nc1ccnn1C1CCCCC1)N1Cc2ccccc2C1
Activity (Candida albicans): Active
Activity (Cryptococcus neoformans): Active

Cn1nc(C2CCCCC2)cc1Nc1cc(O)cc(O)c1C(=O)N1Cc2ccccc2C1
Activity (Candida albicans): Active
Activity (Cryptococcus neoformans): Active

O=C(c1c(O)cc(O)cc1Nc1ccnn1Cc1cccnc1)N1Cc2ccccc2C1
Activity (Candida albicans): Active
Activity (Cryptococcus neoformans): Active

Cc1cccc(-c2cc(Nc3cc(O)cc(O)c3C(=O)N3Cc4ccccc4C3)n(C)n2)c1
Activity (Candida albicans): Active
Activity (Cryptococcus neoformans): Active

CC(C)Cn1nccc1Nc1cc(O)cc(O)c1C(=O)N1Cc2ccccc2C1
Activity (Candida albicans): Active
Activity (Cryptococcus neoformans): Active

CC(C)Cn1nccc1Nc1cc(O)cc(O)c1C(=O)N1Cc2cn[nH]c2C1
Activity (Candida albicans): Active
Activity (Cryptococcus neoformans): Active
